Source: the supplement of paper PMC4862054

Legend:
DU-4475 [1] = test: normalised viability (% of control), CellTiter-Blue; higher = more viable cells (about 100 = DMSO control); conditions: 100 nM; incubation time: 72 h
Protocol: (§1)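 DSRT, CellTiter-Blue viability, 72 h incubation. Signal is normalised to DMSO and benzethonium chloride controls. Value is the normalised response at dose 7.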

HDQ-P1 [2] = test: as above; conditions: 100 nM; incubation time: 72 h
Protocol: as §1

MDA-MB-453 [3] = test: as above; conditions: 100 nM; incubation time: 72 h
Protocol: as §1

CAL-85-1 = test: as above; conditions: 100 nM; incubation time: 72 h
Protocol: as §1

CAL-148 [4] = test: as above; conditions: 100 nM; incubation time: 72 h
Protocol: as §1

CAL-51 [5] = test: as above; conditions: 100 nM; incubation time: 72 h
Protocol: as §1

HCC1143 [6] = test: as above; conditions: 10 nM; incubation time: 72 h
Protocol: (§2)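 DSRT, CellTiter-Blue viability, 72 h incubation. Signal is normalised to DMSO and benzethonium chloride controls. Value is the normalised response at dose 3.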

MDA-MB-468 [7] = test: as above; conditions: 10 nM; incubation time: 72 h
Protocol: as §2

HCC1599 [8] = test: as above; conditions: 10 nM; incubation time: 72 h
Protocol: as §2

MDA-MB-231 [9] = test: as above; conditions: 10 nM; incubation time: 72 h
Protocol: as §2

CAL-120 [10] = test: as above; conditions: 10 nM; incubation time: 72 h
Protocol: as §2

MDA-MB-453 [11] = test: as above; conditions: 1 nM; incubation time: 72 h
Protocol: as §2

HCC1937 [12] = test: as above; conditions: 10 nM; incubation time: 72 h
Protocol: as §2

CAL-148 [13] = test: as above; conditions: 1 nM; incubation time: 72 h
Protocol: as §2

HCC1143 [14] = test: normalised viability (% of control), CellTiter-Blue; higher = more viable cells (100 = DMSO, 0 = benzethonium chloride kill control); conditions: 0.1 nM; incubation time: 72 h
Protocol: (§3)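 DSRT, CellTiter-Blue viability, 72 h incubation. Signal is normalised to DMSO and benzethonium chloride controls. Value is the normalised response at dose 1.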

BT-549 = test: as above; conditions: 0.1 nM; incubation time: 72 h
Protocol: as §3

MDA-MB-468 [15] = test: as above; conditions: 0.1 nM; incubation time: 72 h
Protocol: as §3

DU-4475 [16] = test: as above; conditions: 0.1 nM; incubation time: 72 h
Protocol: as §3

HCC1599 [17] = test: as above; conditions: 0.1 nM; incubation time: 72 h
Protocol: as §3

MDA-MB-231 [18] = test: as above; conditions: 0.1 nM; incubation time: 72 h
Protocol: as §3

MDA-MB-436 = test: as above; conditions: 0.1 nM; incubation time: 72 h
Protocol: as §3

MFM-223 = test: as above; conditions: 0.1 nM; incubation time: 72 h
Protocol: as §3

CAL-120 [19] = test: as above; conditions: 0.1 nM; incubation time: 72 h
Protocol: as §3

HDQ-P1 [20] = test: as above; conditions: 0.1 nM; incubation time: 72 h
Protocol: as §3

MDA-MB-453 [21] = test: as above; conditions: 0.1 nM; incubation time: 72 h
Protocol: as §3

Hs578T = test: as above; conditions: 0.1 nM; incubation time: 72 h
Protocol: as §3

HCC1937 [22] = test: as above; conditions: 0.1 nM; incubation time: 72 h
Protocol: as §3

SK-BR-3 = test: as above; conditions: 0.1 nM; incubation time: 72 h
Protocol: as §3

CAL-148 [23] = test: as above; conditions: 0.1 nM; incubation time: 72 h
Protocol: as §3

CAL-51 [24] = test: as above; conditions: 0.1 nM; incubation time: 72 h
Protocol: as §3

In the case of `COc1cc2c(Oc3ccc4[nH]c(C)cc4c3F)ncnc2cc1OCCCN1CCCC1` [Cediranib], the normalised viability (DU-4475 [1]) is reported as 81.3%, the normalised viability (HDQ-P1 [2]) is reported as 95.9% and the normalised viability (MDA-MB-453 [3]) is reported as 92%. It also gave a normalised viability (CAL-85-1) of 95.6%, a normalised viability (CAL-148 [4]) of 108% and a normalised viability (CAL-51 [5]) of 81.6%. The normalised viability (HCC1143 [6]) was 125%, the normalised viability (MDA-MB-468 [7]) was 103% and the normalised viability (HCC1599 [8]) was 95.1%. It also gave a normalised viability (MDA-MB-231 [9]) of 82.1%, a normalised viability (CAL-120 [10]) of 112% and a normalised viability (MDA-MB-453 [11]) of 78.9%. For the same compound, the normalised viability (HCC1937 [12]) was 96.6%, the normalised viability (CAL-148 [13]) was 97.3% and the normalised viability (HCC1143 [14]) was 110%. For the same compound, the normalised viability (BT-549) was 90.5%, the normalised viability (MDA-MB-468 [15]) was 95.8% and the normalised viability (DU-4475 [16]) was 91.1%. For the same compound, the normalised viability (HCC1599 [17]) was 82.5%, the normalised viability (MDA-MB-231 [18]) was 94.4% and the normalised viability (MDA-MB-436) was 94.8%. For the same compound, the normalised viability (MFM-223) was 101%, the normalised viability (CAL-120 [19]) was 112% and the normalised viability (HDQ-P1 [20]) was 81.1%. The normalised viability (MDA-MB-453 [21]) was 82.5%, the normalised viability (Hs578T) was 92% and the normalised viability (HCC1937 [22]) was 113%. For the same compound, the normalised viability (SK-BR-3) was 92.3%, the normalised viability (CAL-148 [23]) was 109% and the normalised viability (CAL-51 [24]) was 91.3%.
